Laboratory results reported in US20260226077A1, “TYPE II TOPOISOMERASE INHIBITORS AND METHODS OF MAKING AND USING THEREOF” (Ohio State Innovation Foundation, priority 2023, published 2026).
Converted amounts (≈) assume the structure as drawn. Marks after values point to notes of the source that are not given here.

Experiments:
Streptococcus pyogenes = test: MIC50/90 against Streptococcus pyogenes; type: cell-based; conditions: for MIC50: n = 5 (147), n = 10 (others)
FQ-R MRSA = test: MIC against FQ-R MRSA isolates; type: cell-based, Staphylococcus aureus; conditions: Staphylococcus aureus, MRSA; n = 15 (147), n = 25 (284, 319, gepotidacin)
hERG = hERG (Homo sapiens, UniProt Q12809); test: hERG inhibition; type: cell-based
[1] = Mouse microsomal stability; type: in vitro ADME; conditions: microsomes, read-out: Mouse microsom. t1/2
[2] = system: Pseudomonas aeruginosa 27853; test: MIC against Pseudomonas aeruginosa 27853; type: cell-based
in vivo = conditions: mouse
physchem = conditions: pH 7.4, aqueous buffer, kinetic from dmso stock, Kinetic solubility at pH 7.4-7.5 (μM)
K562 = K562 cytotoxicity; type: cell-based; conditions: Homo sapiens
Staphylococcus aureus = test: MIC50/90 against Staphylococcus aureus isolates; type: cell-based; conditions: n = 30 (147), n = 100 (284, 319, gepotidacin)
Mouse pharmacokinetics = conditions: 284: as free base in immunocompetent mice, 147: no footnote
D83N = test: MIC against D83N mutant; type: cell-based
[3] = not given; remark: listed apart in the source
Neisseria gonorrhoeae = test: MIC50/90 against Neisseria gonorrhoeae; type: cell-based; conditions: Neisseria gonorrhoeae; n = 17 (284, gepotidacin); n = 110 (147)
Streptococcus pneumoniae = test: MIC50/90 against Streptococcus pneumoniae; type: cell-based; conditions: for MIC50: n = 5 (147), n = 10 (others)
[4] = system: CYP 1A, 2B6, 2C8, 2C9, 2C19, 2D6, 3A; test: CYP inhibition at 10 μM; type: in vitro ADME
CACO-2 = test: Permeability: CACO-2 A->B; type: in vitro ADME
Streptococcus agalactiae = test: MIC50/90 against Streptococcus agalactiae; type: cell-based; conditions: Streptococcus agalactiae; for MIC50: n = 5 (147), n = 10 (others)
S. aureus ATCC 29213 = type: cell-based; conditions: Using S. aureus ATCC 29213
[5] = system: Acinetobacter baumannii 19606; test: MIC against Acinetobacter baumannii 19606; type: cell-based
5-HT2b = 5-HT2b (Homo sapiens, UniProt P41595); test: Safety44 screen at 100 μM: 5-HT2b
Bacillus anthracis = test: microbe, parasite or virus in culture; type: cell-based; conditions: for MIC50: read-out: Bacillus anthracis MIC50 (μg/mL); for MIC90: read-out: Bacillus anthracis MIC90 (μg/mL)
[6] = Human microsomal stability; type: in vitro ADME; conditions: microsomes, read-out: Human microsom. t1/2
TopoIV/gyrase = TopoIV/gyrase inhibition ratio; type: biochemical
Enterococcus spp. = test: MIC50/90 against Enterococcus spp.; type: cell-based; conditions: n = 10 (147), n = 20 (others)
Escherichia coli 25922 = test: MIC against Escherichia coli 25922; type: cell-based; conditions: Escherichia coli, 25922
Mycobacterium avium = test: MIC50 against Mycobacterium avium; type: cell-based; conditions: n = 4
Mycobacterium abscessus = test: MIC50/90 against Mycobacterium abscessus; type: cell-based; conditions: Mycobacteroides abscessus; n = 10
Haemophilus influenzae = test: MIC50/90 against Haemophilus influenzae; type: cell-based; conditions: n = 10
[7] = system: Staphylococcus epidermidis; test: MIC50/90 against Staphylococcus epidermidis; type: cell-based; conditions: n = 10
[8] = system: Mycobacterium chimaera intracellulare group; test: MIC50 against Mycobacterium chimaera intracellulare group; type: cell-based; conditions: n = 6
Burkholderia mallei = test: microbe, parasite or virus in culture; type: cell-based; conditions: Burkholderia mallei
Moraxella catarrhalis = test: MIC50/90 against Moraxella catarrhalis; type: cell-based; conditions: n = 10
[9] = system: Burkholderia pseudomallei; test: microbe, parasite or virus in culture; type: cell-based
Francisella tularensis = test: microbe, parasite or virus in culture; type: cell-based
Yersinia pestis = test: microbe, parasite or virus in culture; type: cell-based

5-HT2b, sequence (P41595 whole entry): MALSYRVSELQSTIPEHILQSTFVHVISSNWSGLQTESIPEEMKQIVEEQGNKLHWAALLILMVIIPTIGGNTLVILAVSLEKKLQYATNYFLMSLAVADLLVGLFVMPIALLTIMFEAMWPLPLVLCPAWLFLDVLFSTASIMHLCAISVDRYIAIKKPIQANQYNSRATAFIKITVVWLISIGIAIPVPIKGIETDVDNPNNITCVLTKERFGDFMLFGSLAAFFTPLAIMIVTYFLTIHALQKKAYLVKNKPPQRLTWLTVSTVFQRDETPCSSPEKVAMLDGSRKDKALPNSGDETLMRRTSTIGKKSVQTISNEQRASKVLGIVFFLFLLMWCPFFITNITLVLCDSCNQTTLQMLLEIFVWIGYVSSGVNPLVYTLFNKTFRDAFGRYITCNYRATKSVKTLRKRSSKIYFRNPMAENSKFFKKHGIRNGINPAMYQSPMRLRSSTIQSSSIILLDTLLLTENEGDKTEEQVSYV
hERG, sequence (Q12809 whole entry): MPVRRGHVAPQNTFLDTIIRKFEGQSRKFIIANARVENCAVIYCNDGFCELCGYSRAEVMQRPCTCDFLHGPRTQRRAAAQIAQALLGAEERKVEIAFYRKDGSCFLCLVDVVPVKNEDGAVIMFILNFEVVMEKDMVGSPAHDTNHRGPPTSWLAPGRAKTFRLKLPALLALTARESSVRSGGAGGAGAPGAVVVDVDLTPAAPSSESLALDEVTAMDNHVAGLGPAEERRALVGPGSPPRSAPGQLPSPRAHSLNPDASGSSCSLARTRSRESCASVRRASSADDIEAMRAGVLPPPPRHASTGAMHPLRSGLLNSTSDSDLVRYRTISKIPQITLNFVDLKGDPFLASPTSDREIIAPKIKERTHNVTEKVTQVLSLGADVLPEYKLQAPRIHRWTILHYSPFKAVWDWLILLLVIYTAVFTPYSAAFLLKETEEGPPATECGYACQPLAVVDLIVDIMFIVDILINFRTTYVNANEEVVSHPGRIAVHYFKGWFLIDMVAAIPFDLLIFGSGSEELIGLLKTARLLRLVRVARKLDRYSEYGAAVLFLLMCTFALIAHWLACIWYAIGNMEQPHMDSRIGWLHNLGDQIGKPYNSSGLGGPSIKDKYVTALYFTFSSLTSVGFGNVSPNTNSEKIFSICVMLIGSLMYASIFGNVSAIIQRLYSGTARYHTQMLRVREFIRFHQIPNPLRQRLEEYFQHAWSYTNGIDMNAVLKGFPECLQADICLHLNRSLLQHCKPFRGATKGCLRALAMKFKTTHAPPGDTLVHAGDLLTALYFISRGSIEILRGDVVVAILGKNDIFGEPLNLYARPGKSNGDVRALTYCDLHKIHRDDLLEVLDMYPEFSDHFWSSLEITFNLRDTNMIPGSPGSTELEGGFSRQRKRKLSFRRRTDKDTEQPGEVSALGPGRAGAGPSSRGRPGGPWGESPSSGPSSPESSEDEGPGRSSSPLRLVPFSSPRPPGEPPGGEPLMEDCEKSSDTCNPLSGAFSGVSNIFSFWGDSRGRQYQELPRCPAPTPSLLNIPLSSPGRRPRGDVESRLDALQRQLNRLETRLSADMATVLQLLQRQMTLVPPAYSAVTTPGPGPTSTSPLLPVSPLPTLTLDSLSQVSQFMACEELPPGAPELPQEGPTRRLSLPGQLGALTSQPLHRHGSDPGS

With `COc1ccc2ncc(F)c(C[C@H](O)[C@H]3OC[C@H](NCc4cc5c(nn4)OCCS5)CO3)c2n1` [Compound 147, reference compound] the “Human plasma protein binding (% unbound)” value was 15 % unbound, the MIC50 (Streptococcus pyogenes) was 0.5 mg/L (≈ 1.02 µM) and the MIC90 (FQ-R MRSA) was 0.25 mg/L (≈ 0.511 µM). For the same compound, the IC50 (hERG) was 103 µM, the half-life [1] was 0.3 to 0.433 h and the MIC [2] was > 64 mg/L. The Vd (in vivo; Mouse Vdss (L)) was 1 L, the bioavailability (in vivo; po, Mouse PK Oral bioavailability (%)) was 49% and the solubility kinetic (physchem) was 69.6 µM (≈ 34.1 µg/mL). The IC50 (K562) was 153 µM, the MIC50 (Staphylococcus aureus) was 0.12 mg/L (≈ 0.245 µM) and the MIC90 (Staphylococcus aureus) was 0.25 mg/L (≈ 0.511 µM). For the same compound, the “Mouse PK AUClast, unbound (μg*h/mL) after 50 mg/kg oral dose” value (Mouse pharmacokinetics; 50 mg/kg oral) was 0.9 µg·h/mL, the “Mouse Clunbound” value (Mouse pharmacokinetics) was 34.5 L/h/kg and the MIC (D83N) was 4 to 8 mg/L (≈ 8.17 to 16.3 µM). For the same compound, the “Mouse plasma protein binding (% unbound)” value [3] was 12 % unbound, the MIC50 (Neisseria gonorrhoeae) was > 4 mg/L and the MIC90 (Neisseria gonorrhoeae) was > 4 mg/L. For the same compound, the MIC50 (Streptococcus pneumoniae) was 0.5 mg/L (≈ 1.02 µM), the “CYP inhibition at 10 μM (1A, 2B6, 2C8, 2C9, 2C19, 2D6, 3A)” value [4] was “No issues” and the “Permeability: CACO-2 A−>B (×10^−6 cm/s)” value (CACO-2) was 5.68 ×10^−6 cm/s. For the same compound, the MIC50 (Streptococcus agalactiae) was 4 mg/L (≈ 8.17 µM), the “Resistance freq. (at 8X MIC)” value (S. aureus ATCC 29213) was 2.02 × 10^−9* and the MIC [5] was 64 mg/L (≈ 131 µM). The “Safety44 screen at 100 μM: 5-HT2b” value (5-HT2b) was 5-HT2b (72%), the MIC50 (Bacillus anthracis) was 2 µg/mL (≈ 4.09 µM) and the MIC90 (Bacillus anthracis) was 8 µg/mL (≈ 16.3 µM). It also gave a half-life [6] of 1.57 h, a TopoIV/gyrase ratio (TopoIV/gyrase) of 16 and an MIC50 (Enterococcus spp.) of 0.25 mg/L (≈ 0.511 µM). The MIC90 (Enterococcus spp.) was 1 mg/L (≈ 2.04 µM) and the MIC (Escherichia coli 25922) was > 64 mg/L.
With `O=c1ccc2ncc(=O)n3c2n1C[C@H]3CN1CCC(NCc2cc3c(cn2)OCCC3)CC1` [gepotidacin, reference compound] the MIC50 (Mycobacterium avium) was 32 mg/L (≈ 71.3 µM), the MIC50 (Streptococcus pyogenes) was 0.12 mg/L (≈ 0.268 µM) and the MIC90 (Streptococcus pyogenes; n = 10) was 0.5 mg/L (≈ 1.11 µM). The MIC50 (Mycobacterium abscessus) was 16 mg/L (≈ 35.7 µM), the MIC90 (Mycobacterium abscessus) was 64 mg/L (≈ 143 µM) and the MIC90 (FQ-R MRSA) was 0.5 mg/L (≈ 1.11 µM). The MIC50 (Haemophilus influenzae) was 1 mg/L (≈ 2.23 µM), the MIC90 (Haemophilus influenzae) was 2 mg/L (≈ 4.46 µM) and the MIC [2] was 8 to 16 mg/L (≈ 17.8 to 35.7 µM). It also gave an MIC50 [7] of 0.25 mg/L (≈ 0.557 µM), an MIC90 [7] of 0.5 mg/L (≈ 1.11 µM) and an MIC50 (Staphylococcus aureus) of 0.25 mg/L (≈ 0.557 µM). For the same compound, the MIC90 (Staphylococcus aureus) was 0.5 mg/L (≈ 1.11 µM), the MIC50 [8] was > 64 mg/L and the MIC50 (Neisseria gonorrhoeae) was 0.5 mg/L (≈ 1.11 µM). For the same compound, the MIC90 (Neisseria gonorrhoeae) was 1 mg/L (≈ 2.23 µM), the MIC50 (Streptococcus pneumoniae) was 0.12 mg/L (≈ 0.268 µM) and the MIC90 (Streptococcus pneumoniae; n = 10) was 0.25 mg/L (≈ 0.557 µM). For the same compound, the MIC50 (Burkholderia mallei; read-out: Burkholderia mallei MIC50 (μg/mL)) was 8 µg/mL (≈ 17.8 µM), the MIC90 (Burkholderia mallei; read-out: Burkholderia mallei MIC90 (μg/mL)) was ≥ 64 µg/mL and the MIC50 (Moraxella catarrhalis) was 0.06 mg/L (≈ 0.134 µM). The MIC90 (Moraxella catarrhalis) was 0.06 mg/L (≈ 0.134 µM), the MIC50 (Streptococcus agalactiae) was 0.5 mg/L (≈ 1.11 µM) and the MIC90 (Streptococcus agalactiae; n = 10) was 1 mg/L (≈ 2.23 µM). For the same compound, the MIC50 ([9]; read-out: Burkholderia pseudomallei MIC50 (μg/mL)) was 32 µg/mL (≈ 71.3 µM), the MIC90 ([9]; read-out: Burkholderia pseudomallei MIC90 (μg/mL)) was 32 µg/mL (≈ 71.3 µM) and the MIC [5] was 32 mg/L (≈ 71.3 µM). For the same compound, the MIC50 (Francisella tularensis; read-out: Francisella tularensis MIC50 (μg/mL)) was 0.12 µg/mL (≈ 0.268 µM), the MIC90 (Francisella tularensis; read-out: Francisella tularensis MIC90 (μg/mL)) was 0.5 µg/mL (≈ 1.11 µM) and the MIC50 (Bacillus anthracis) was 0.5 µg/mL (≈ 1.11 µM). For the same compound, the MIC90 (Bacillus anthracis) was 0.5 µg/mL (≈ 1.11 µM), the MIC50 (Enterococcus spp.) was 2 mg/L (≈ 4.46 µM) and the MIC90 (Enterococcus spp.) was 4 mg/L (≈ 8.92 µM). The MIC50 (Yersinia pestis; read-out: Yersinia pestis MIC50 (μg/mL)) was 0.12 µg/mL (≈ 0.268 µM), the MIC90 (Yersinia pestis; read-out: Yersinia pestis MIC90 (μg/mL)) was 0.5 µg/mL (≈ 1.11 µM) and the MIC (Escherichia coli 25922) was 1 to 2 mg/L (≈ 2.23 to 4.46 µM).
